Values joined by “and” are separate entries in the source; they are usually repeats but may differ in a detail not shown here. Equal values may be shown once. Starred links: 1 amine or outer side, 2 acyl side, 3 side chain; linkers in the order of their positions; H or OH if unused. Non-standard residues stand in square brackets, D forms with d. Residues, ends and D or L forms follow the SMILES beside them. *: point of attachment. Adenosine(5'-uronoyl) = Nc1ncnc2c1ncn2[C@@H]1O[C@H](C(=O)*)[C@@H](O)[C@H]1O; X1 = CN(C)c1ccc2c(-c3ccc(C(=O)*)cc3C(=O)[O-])c3ccc(=[N+](C)C)cc-3oc2c1; Isoquinoline5sulfonyl = O=S(=O)(c1cccc2cnccc12)*; X2 = O=C(CCCCCNCCN[*:1])[*:2]; X3 = CN(CCCCCC(=O)[*:2])[*:1]; 4Amb = NCc1ccc(C(=O)O)cc1; Ahx = NCCCCCC(=O)O; βAla = NCCC(=O)O
How the values were obtained:
[1] = target: Rho-associated kinase ROCK II (Homo sapiens, UniProt O75116); assay: Titration of ARC-TAMRA with ROCK II, PHERAstar; format: binding; conditions: 2 nM and 20 nM ARC-TAMRA, read-out: Kd of ARC-TAMRA-ROCK II complex
Rho-associated kinase ROCK II, sequence (O75116 whole entry): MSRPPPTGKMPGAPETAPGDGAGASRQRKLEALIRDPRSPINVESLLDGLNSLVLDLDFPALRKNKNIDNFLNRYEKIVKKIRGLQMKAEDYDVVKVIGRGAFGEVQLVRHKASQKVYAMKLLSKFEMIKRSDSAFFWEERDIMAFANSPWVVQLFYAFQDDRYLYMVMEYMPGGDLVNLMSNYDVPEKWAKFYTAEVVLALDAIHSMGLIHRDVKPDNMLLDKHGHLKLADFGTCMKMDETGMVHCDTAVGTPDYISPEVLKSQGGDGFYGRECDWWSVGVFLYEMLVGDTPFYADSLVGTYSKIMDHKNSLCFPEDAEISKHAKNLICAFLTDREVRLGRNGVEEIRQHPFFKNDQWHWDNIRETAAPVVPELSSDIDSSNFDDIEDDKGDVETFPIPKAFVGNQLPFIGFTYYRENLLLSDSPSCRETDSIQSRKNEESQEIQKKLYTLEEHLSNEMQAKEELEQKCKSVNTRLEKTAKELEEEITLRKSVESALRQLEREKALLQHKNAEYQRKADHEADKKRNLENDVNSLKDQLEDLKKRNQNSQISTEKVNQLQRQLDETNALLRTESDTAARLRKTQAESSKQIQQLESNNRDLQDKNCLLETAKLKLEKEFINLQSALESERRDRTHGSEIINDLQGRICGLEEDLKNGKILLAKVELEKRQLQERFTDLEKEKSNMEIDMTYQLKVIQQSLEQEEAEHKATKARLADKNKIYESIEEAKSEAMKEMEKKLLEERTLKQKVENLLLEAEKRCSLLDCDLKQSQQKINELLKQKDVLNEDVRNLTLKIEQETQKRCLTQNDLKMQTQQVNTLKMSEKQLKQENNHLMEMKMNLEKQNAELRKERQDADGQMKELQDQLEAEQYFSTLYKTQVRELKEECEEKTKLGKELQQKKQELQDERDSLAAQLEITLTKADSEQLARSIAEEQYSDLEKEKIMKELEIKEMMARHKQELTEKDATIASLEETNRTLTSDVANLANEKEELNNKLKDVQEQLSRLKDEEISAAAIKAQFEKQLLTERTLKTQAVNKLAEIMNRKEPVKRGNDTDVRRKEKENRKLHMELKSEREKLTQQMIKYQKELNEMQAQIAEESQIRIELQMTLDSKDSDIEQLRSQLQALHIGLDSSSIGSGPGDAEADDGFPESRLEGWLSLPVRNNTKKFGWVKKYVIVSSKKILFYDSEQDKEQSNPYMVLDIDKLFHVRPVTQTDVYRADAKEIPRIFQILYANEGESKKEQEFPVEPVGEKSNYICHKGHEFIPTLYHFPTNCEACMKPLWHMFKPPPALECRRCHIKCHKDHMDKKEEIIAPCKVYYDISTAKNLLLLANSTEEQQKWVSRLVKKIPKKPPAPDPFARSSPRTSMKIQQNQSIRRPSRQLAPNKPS
Procedure: Experiments were performed in the wells of 384-well microtiter plates and with the measurements of fluorescence anisotropy with the platereader PHERAStar according to the protocols described in the Example 7.

cAPK Cα [2] = target: T1, cAPK Cα (Homo sapiens, UniProt P17612); assay: Titration of ARC-TAMRA with cAPK Cα, fluorescence anisotropy, LS 55 spectrometer 0.5 ml cell; format: binding; design: purchased Biaffin AG; conditions: LS 55, 0.5 ml quartz cell, read-out: Kd of ARC-TAMRA complex with cAPK Cα
Procedure: The change in fluorescence anisotropy was plotted against the kinase concentration [cAPK Cα]. The data were fitted to the equation: […]
The binding of the fluorescent probe ARC-TAMRA to the kinase cAPK Cα (Biaffin) was studied at 10 nM or 2 nM ARC-TAMRA concentration (excitation at 557 nm, slitwidth 10 nm; emission at 585 nm, slitwidth 10 nm, detection of fluorescence polarization).
10 nM solution of ARC-TAMRA in 500 μl of buffer (50 mM HEPES, 200 mM NaCl, 0.5 g/l BSA, 5 mM DTT, 0.05% TWEEN 20, MilliQ water; pH 7.4) was titrated with the solution of kinase cAPK Cα (Biaffin). 1-3 μl quantities of various dilutions of kinase solution were added to 500 μl of 2.0 nM or 10.0 nM solution of ARC-TAMRA, and fluorescence anisotropy was measured after each addition of the kinase solution after 10 min delay time. The change in fluorescence anisotropy was plotted against the kinase concentration [cAPK Cα]. The data were fitted to the equation: […]

cAPK Cα [3] = target: T1, cAPK Cα; assay: Titration of ARC-TAMRA with cAPK Cα, PHERAstar plate reader, 384-well; format: binding; design: purchased Biaffin AG; conditions: 2 nM and 20 nM ARC-TAMRA, 20 μl, 30° C., read-out: Kd of ARC-TAMRA complex with cAPK Cα
Procedure: Titrations of 2 nM and 20 nM ARC-TAMRA solutions were performed with cAPK C[…]. 2-fold serial dilutions of the kinase were used leading to concentrations of the kinase between 100 nM and 0.05 nM and 20 μl reaction volumes on a 384-well microtiter plate. […] Optical conditions for the measurements were set as the following: 540 nm excitation and 590 nm emission (20 nm bandpass filters). To find the value of Kd, titration curves were analyzed by a scientific curve-fitting program, e.g., GraphPad Prism 4.03, with nonlinear regression, using the function below:
[formula] where A is measured anisotropy, Af—anisotropy value for free ARC-Photo, Ab—anisotropy value for bound ARC-Photo, Lt—total concentration of ARC-Photo, Rt—nominal total concentration of enzyme, k—concentration of active enzyme divided by nominal concentration of enzyme, Kd—dissociation constant for ARC-Photo complex with enzyme. […] Determination of the Inhibition Constants (Ki)

cAPK Cα [4] = target: T1, cAPK Cα; assay: Inhibition of TAMRA-kemptide phosphorylation catalyzed by cAPK Cα (TLC, fluorescence imaging); format: biochemical; design: purchased Biaffin AG
Procedure: (§1) The IC50 values of the inhibitors were measured as previously described. [Viht et al., Anal. Biochem. 340 (2005) 165] The inhibitors in various concentrations were incubated at 30° C. in Hepes buffer (50 mM, pH=7.5) containing cAPK Cα (Biaffin AG; about 1 nM), TAMRA-kemptide (10, 30 or 100 μM), ATP (100 μM or 1 mM), magnesium acetate (10 mM) and bovine serum albumin ([…] 0.2 mg/mL). ATP was added last to initiate the phosphorylation reaction. At fixed time points, the reaction was stopped by 20-fold dilution with 75 mM phosphoric acid and obtained solutions were analyzed by normal phase TLC (without fluorescence indicator, eluted with 1-butanol/pyridine/acetic acid/water, 15/10/12/12 by volume). The visualization and quantification of the fluorescent spots were carried out by fluorescence imaging. Data were processed with Graphpad Prism software (version 4, GraphPad).

cAPK Cα [5] = target: T1, cAPK Cα; assay: Inhibition of cAPK Cα-catalysed phosphorylation of TAMRA-kemptide (TLC/fluorescence imaging); format: biochemical; design: purchased Biaffin AG; conditions: single site-targeted constituents of the conjugate
Procedure: as §1

cAPK Cα [6] = target: T1, cAPK Cα; assay: Competition: displacement of ARC-TAMRA from complex with cAPK Cα, fluorescence anisotropy, LS 55; format: binding; design: purchased Biaffin AG
Procedure: A complex was created between 10 nM of ARC-TAMRA and 10 nM of cAPK Cα in 0.500 ml of buffer (50 mM HEPES, 200 mM NaCl, 0.5 g/l BSA, 5 mM DTT, 0.05% TWEEN 20, MilliQ water; pH 7.4). Different compounds were screened for binding to cAPK Cα against fixed concentrations of ARC-TAMRA and cAPK Cα (FIG. 4). 1-3 μl quantities of various dilutions of the solution of the inhibitor were added to 500 μl solution of ARC-TAMRA complex with the kinase and fluorescence anisotropy was measured after each addition of the […] after 10 min delay time.

cAPK Cα [7] = target: T1, cAPK Cα; assay: High-throughput displacement of ARC-TAMRA from cAPK Cα, PHERAstar
Procedure: To determine the inhibition constant (Ki), 3-fold serial dilutions of a given inhibitor are performed analogously as for titration experiments. Before the measurement of fluorescence anisotropies the plate is rotated (400 rpm) for 10 minutes at 30° C.

MSK1 = MSK1 (Homo sapiens, UniProt O75582); assay: Kinase selectivity panel, residual activity; format: biochemical; conditions: 1 μM compound, 20 μM ATP, 30° C.
MSK1, sequence (O75582 whole entry): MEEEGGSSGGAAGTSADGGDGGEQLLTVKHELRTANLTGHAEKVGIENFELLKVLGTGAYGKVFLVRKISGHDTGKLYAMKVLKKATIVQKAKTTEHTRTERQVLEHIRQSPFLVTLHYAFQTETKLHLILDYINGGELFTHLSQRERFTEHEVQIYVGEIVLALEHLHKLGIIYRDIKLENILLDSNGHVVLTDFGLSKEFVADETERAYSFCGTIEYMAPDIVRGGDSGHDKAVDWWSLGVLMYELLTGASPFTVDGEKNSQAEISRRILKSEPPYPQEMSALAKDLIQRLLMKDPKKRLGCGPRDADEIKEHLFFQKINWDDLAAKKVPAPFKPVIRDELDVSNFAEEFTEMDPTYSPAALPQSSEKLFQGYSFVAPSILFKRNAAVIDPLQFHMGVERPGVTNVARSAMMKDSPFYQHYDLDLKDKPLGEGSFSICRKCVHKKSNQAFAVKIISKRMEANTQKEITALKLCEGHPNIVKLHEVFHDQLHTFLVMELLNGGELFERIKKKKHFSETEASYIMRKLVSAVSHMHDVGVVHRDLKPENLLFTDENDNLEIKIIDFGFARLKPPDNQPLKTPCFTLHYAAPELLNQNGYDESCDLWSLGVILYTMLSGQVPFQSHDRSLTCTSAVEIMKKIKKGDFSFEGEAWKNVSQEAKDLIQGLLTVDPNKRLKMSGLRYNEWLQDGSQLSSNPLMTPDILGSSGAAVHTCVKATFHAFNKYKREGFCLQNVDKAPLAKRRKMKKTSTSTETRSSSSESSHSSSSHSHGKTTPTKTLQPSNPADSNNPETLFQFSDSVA
Procedure: The assay of protein kinases was performed at 30° C. as described previously [Davies et al., Biochem. J. 351 (2000) 95; Murray et al., Biochem. J. 384 (2004) 477].

PKBb = PKBb (Homo sapiens, UniProt P31751); assay: Kinase selectivity panel, residual activity; format: biochemical; conditions: 1 μM compound, 50 μM ATP, 30° C.
PKBb, sequence (P31751 whole entry): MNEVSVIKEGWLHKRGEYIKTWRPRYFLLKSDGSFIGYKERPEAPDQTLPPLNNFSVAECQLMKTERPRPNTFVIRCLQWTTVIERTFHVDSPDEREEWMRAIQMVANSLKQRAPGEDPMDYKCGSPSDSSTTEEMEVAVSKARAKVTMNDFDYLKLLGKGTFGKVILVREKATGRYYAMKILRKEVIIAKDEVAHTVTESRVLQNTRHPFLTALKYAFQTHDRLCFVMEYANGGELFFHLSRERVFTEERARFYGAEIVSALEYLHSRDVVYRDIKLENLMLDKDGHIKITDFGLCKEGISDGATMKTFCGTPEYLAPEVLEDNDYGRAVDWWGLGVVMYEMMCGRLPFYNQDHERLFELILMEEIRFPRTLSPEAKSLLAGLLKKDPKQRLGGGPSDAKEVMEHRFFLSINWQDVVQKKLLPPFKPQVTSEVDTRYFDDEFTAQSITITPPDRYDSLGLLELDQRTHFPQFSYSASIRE
Procedure: (§2) The assay of protein kinases was performed at 30° C. as described previously [Davies et al., Biochem. J. 351 (2000) 95; Murray et al., Biochem. J. 384 (2004) 477]. The results of the testing are expressed as the % of residual activity of the kinase in the presence of the inhibitor at 1 micromolar concentration.

PKBΔph = PKBΔph (Homo sapiens, UniProt P31749); assay: Kinase selectivity panel, residual activity; format: biochemical; conditions: 1 μM compound, 5 μM ATP, 30° C.
PKBΔph, sequence (P31749 whole entry, stated change not applied): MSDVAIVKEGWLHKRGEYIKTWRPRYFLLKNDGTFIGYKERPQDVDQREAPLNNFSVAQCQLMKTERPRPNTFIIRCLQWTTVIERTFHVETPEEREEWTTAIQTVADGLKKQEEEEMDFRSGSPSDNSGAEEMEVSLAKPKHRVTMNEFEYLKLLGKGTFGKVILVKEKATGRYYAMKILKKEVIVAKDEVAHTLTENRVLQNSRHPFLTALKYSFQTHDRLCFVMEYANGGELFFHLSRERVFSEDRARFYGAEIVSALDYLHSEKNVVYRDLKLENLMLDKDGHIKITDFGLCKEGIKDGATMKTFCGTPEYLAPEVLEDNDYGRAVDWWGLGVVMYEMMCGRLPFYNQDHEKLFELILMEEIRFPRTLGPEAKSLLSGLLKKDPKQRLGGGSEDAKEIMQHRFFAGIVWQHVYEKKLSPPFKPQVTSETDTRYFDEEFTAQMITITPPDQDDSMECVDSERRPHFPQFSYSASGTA
Procedure: as §2

PRK2 = PRK2 (Homo sapiens, UniProt Q16513); assay: Kinase selectivity panel, residual activity; format: biochemical
PRK2, sequence (Q16513 whole entry): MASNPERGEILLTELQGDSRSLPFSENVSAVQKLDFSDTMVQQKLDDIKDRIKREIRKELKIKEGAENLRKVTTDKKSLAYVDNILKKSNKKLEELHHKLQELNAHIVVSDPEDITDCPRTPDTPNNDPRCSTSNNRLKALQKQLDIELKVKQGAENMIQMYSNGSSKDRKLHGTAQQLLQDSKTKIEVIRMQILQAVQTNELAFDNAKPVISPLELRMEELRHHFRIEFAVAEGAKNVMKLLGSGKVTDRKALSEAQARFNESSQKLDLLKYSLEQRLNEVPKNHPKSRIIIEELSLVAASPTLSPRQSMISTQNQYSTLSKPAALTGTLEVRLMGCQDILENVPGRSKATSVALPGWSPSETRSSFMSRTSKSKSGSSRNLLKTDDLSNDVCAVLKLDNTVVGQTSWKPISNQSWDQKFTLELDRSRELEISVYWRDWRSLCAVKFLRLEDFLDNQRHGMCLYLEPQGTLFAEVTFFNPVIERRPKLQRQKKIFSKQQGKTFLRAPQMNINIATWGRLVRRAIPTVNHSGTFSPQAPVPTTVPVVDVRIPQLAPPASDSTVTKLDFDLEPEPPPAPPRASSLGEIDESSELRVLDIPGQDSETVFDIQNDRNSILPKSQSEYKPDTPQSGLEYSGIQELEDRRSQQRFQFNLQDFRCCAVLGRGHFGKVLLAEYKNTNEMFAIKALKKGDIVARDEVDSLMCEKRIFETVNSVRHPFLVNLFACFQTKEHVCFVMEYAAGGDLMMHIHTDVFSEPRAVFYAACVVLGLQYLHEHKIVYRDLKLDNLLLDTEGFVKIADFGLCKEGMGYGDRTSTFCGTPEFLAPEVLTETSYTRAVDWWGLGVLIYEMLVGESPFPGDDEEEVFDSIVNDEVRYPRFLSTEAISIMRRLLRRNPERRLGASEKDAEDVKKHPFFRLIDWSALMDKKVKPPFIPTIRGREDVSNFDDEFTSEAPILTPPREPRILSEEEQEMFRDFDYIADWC
Procedure: as §2

[8] = 100 μM ATP and 30 μM TAMRA-kemptide, read-out: IC50

## CN(C)c1ccc2c(-c3ccc(C(=O)NCCCC[C@@H](NC(=O)[C@@H](CCCNC(=N)N)NC(=O)[C@@H](CCCNC(=N)N)NC(=O)[C@@H](CCCNC(=N)N)NC(=O)[C@@H](CCCNC(=N)N)NC(=O)[C@@H](CCCNC(=N)N)NC(=O)[C@@H](CCCNC(=N)N)NC(=O)CCCCCNC(=O)[C@H]4O[C@@H](n5cnc6c(N)ncnc65)[C@H](O)[C@@H]4O)C(N)=O)cc3C(=O)[O-])c3ccc(=[N+](C)C)cc-3oc2c1 [ARC-TAMRA, AdcAhx(D-Arg)6-D-Lys(5-TAMRA)-C(O)NH2] ({Adenosine(5'-uronoyl)-Ahx}-[dR][dR][dR][dR][dR][dR][dK](X1)-NH2)
[1]
  Kd: 0.004 µM
cAPK Cα [2]; 2 nM ARC-TAMRA
  Kd: 0.0011 µM
cAPK Cα [2]; 10 nM ARC-TAMRA
  Kd: 0.001 µM and 0.00094 µM
cAPK Cα [3]
  Kd: 0.0004 µM
cAPK Cα [4]; read-out: IC50 of inhibition towards cAPK
  IC50: 0.0062 µM

## Nc1ncnc2c1ncn2[C@@H]1O[C@H](CO)[C@@H](O)[C@H]1O [Ado, adenosine, reference compound]
cAPK Cα [4]; [8]
  IC50: 350 ± 40 µM

## Nc1ncnc2c1ncn2[C@@H]1O[C@H](CO)[C@@H](O)[C@H]1O [Ado, adenosine]
cAPK Cα [5]
  inhibitory potency: submillimolar

## N=C(N)NCCC[C@H](NC(=O)[C@H](CCCNC(=N)N)NC(=O)[C@H](CCCNC(=N)N)NC(=O)[C@H](CCCNC(=N)N)NC(=O)CCCCCNC(=O)[C@H]1O[C@@H](n2cnc3c(N)ncnc32)[C@H](O)[C@@H]1O)C(N)=O [Compound 2] ({Adenosine(5'-uronoyl)-Ahx}-RRRR-NH2)
cAPK Cα [4]; [8]
  IC50: 2 ± 0.3 µM

## N=C(N)NCCC[C@H](NC(=O)[C@H](CCCNC(=N)N)NC(=O)[C@H](CCCNC(=N)N)NC(=O)[C@H](CCCNC(=N)N)NC(=O)[C@H](CCCNC(=N)N)NC(=O)[C@H](CCCNC(=N)N)NC(=O)CCCCCNC(=O)[C@H]1O[C@@H](n2cnc3c(N)ncnc32)[C@H](O)[C@@H]1O)C(N)=O [Compound 3, AdcAhx(L-Arg)6-NH2]
cAPK Cα [6]; 10 nM ARC-TAMRA, 10 nM cAPK Cα
  IC50: 1.3 µM
cAPK Cα [6]; read-out: Ki (competitive binding)
  Ki: 0.11 µM
cAPK Cα [7]
  Ki: 0.021 µM

## N=C(N)NCCC[C@@H](NC(=O)[C@@H](CCCNC(=N)N)NC(=O)[C@@H](CCCNC(=N)N)NC(=O)[C@@H](CCCNC(=N)N)NC(=O)CCCCCNC(=O)[C@H]1O[C@@H](n2cnc3c(N)ncnc32)[C@H](O)[C@@H]1O)C(N)=O [Compound 4] ({Adenosine(5'-uronoyl)-Ahx}-[dR][dR][dR][dR]-NH2)
cAPK Cα [4]; [8]
  IC50: 0.33 ± 0.03 µM

## CN(CCCCCC(=O)N[C@@H](CCCNC(=N)N)C(=O)N[C@@H](CCCNC(=N)N)C(=O)N[C@@H](CCCNC(=N)N)C(=O)N[C@@H](CCCNC(=N)N)C(N)=O)C(=O)[C@H]1O[C@@H](n2cnc3c(N)ncnc32)[C@H](O)[C@@H]1O [Compound 6] ({Adenosine(5'-uronoyl)}-[X3]RRRR-NH2)
cAPK Cα [4]; [8]
  IC50: 2.6 ± 0.6 µM

## N=C(N)NCCC[C@H](NC(=O)[C@H](CCCNC(=N)N)NC(=O)[C@H](CCCNC(=N)N)NC(=O)[C@H](CCCNC(=N)N)NC(=O)c1ccc(CNC(=O)[C@H]2O[C@@H](n3cnc4c(N)ncnc43)[C@H](O)[C@@H]2O)cc1)C(N)=O [Compound 7] ({Adenosine(5'-uronoyl)-4Amb}-RRRR-NH2)
cAPK Cα [4]; [8]
  IC50: 23 ± 4 µM

## N=C(N)NCCC[C@H](NC(=O)[C@H](CCCNC(=N)N)NC(=O)[C@H](CCCNC(=N)N)NC(=O)[C@H](CCCNC(=N)N)NC(=O)CCNC(=O)[C@H](Cc1ccccc1)NC(=O)[C@H]1O[C@@H](n2cnc3c(N)ncnc32)[C@H](O)[C@@H]1O)C(N)=O [Compound 8] ({Adenosine(5'-uronoyl)}-F[βAla]RRRR-NH2)
cAPK Cα [4]; [8]
  IC50: 3.7 ± 0.3 µM

## N=C(N)NCCC[C@H](NC(=O)[C@H](CCCNC(=N)N)NC(=O)[C@H](CCCNC(=N)N)NC(=O)[C@H](CCCNC(=N)N)NC(=O)CCCCCNCCNS(=O)(=O)c1cccc2cnccc12)C(N)=O [Compound 25] (Isoquinoline5sulfonyl-[X2]RRRR-NH2)
cAPK Cα [4]; second value in parentheses, condition not stated in table (method: ATP 100 μM or 1 mM), read-out: IC50 (μM), value in parentheses (converted)
  IC50: 0.22 µM

## N=C(N)NCCC[C@@H](NC(=O)[C@@H](CCCNC(=N)N)NC(=O)[C@@H](CCCNC(=N)N)NC(=O)[C@@H](CCCNC(=N)N)NC(=O)[C@@H](CCCNC(=N)N)NC(=O)[C@@H](CCCNC(=N)N)NC(=O)CCCCCNCCNS(=O)(=O)c1cccc2cnccc12)C(N)=O [Compound 26, H9-(CH2)5C(O)(D-Arg)6-NH2]
MSK1
  remaining activity at 1 µM: ≤ 3%
PKBb
  remaining activity at 1 µM: ≤ 3%
PKBΔph
  residual activity: ≤ 3%
PRK2
  remaining activity at 1 µM: ≤ 3%

## CC(=O)N[C@H](CCCNC(=N)N)C(=O)N[C@H](CCCNC(=N)N)C(=O)N[C@H](CCCNC(=N)N)C(=O)N[C@H](CCCNC(=N)N)C(=O)N[C@H](CCCNC(=N)N)C(=O)N[C@H](CCCNC(=N)N)C(=O)N[C@H](CCCCN)C(N)=O [Compound 27, Ac-(D-Arg)6-D-Lys-NH2] (Ac-[dR][dR][dR][dR][dR][dR][dK]-NH2)
cAPK Cα [4]; [8]
  IC50: ~3000 µM

## NCCNS(=O)(=O)c1cccc2cnccc12 [Compound H9, 5-isoquinolinesulfonyl ethylenediamine, reference compound]
cAPK Cα [4]; [8]
  IC50: 3.7 ± 0.3 µM

## RIIa: regulatory subunit of cAMP-dependent protein kinase RIIα, substrate protein-competitive inhibitor
cAPK Cα [7]; read-out: Ki (displacement of ARC-TAMRA), 2 nM ARC-TAMRA, 3 nM cAPK Cα, PHERAstar, Kd 0.4 nM used
  Ki: 0.0005 µM
